Consider two molecules from patent US8278300B2, “Use for PDE5 inhibitors” (Nycomed GmbH, priority 2004, dated 2012).

Assay [1] relates to cerebral blood flow within the posterior cerebral artery. The experiment in a line: Transcranial Doppler of visually stimulated cerebral blood flow in pulmonary hypertension patients. In kind it is in vivo, human. The following applies: for cerebral microvascular reactivity: patients with chronic pulmonary hypertension. An excerpt:
It has been shown—contrary to the skilled person's expectation, that the vasodilating effect achieved with a PDE5 inhibitor extends to the improvement of the kinetics in blood flow changes upon stimulation of the cortex by utilizing a visual stimulation paradigm. This could be shown by using the doppler-ultrasound technology which can measure the heart-beat dependent pulsatile blood flow within the basale cerebral vasculature with very high resolution. With a standard visual stimulation the Doppler is able by insonate the posterior cerebral artery to measure the activity-dependent blood-flow-regulation. [Rosengarten et al. (2001) Neurovascular coupling in terms of a control system: validation of a second-order linear system model. Ultrasound Med. Biol. 27: 631-5; Babikian et al. (2000) Transcranial Doppler ultrasonography: year 2000 update. J Neuroimaging 10: 101-115]
A pharmaceutical preparation comprising a PDE5 inhibitor can be used to treat patients with primary and secondary pulmonary hypertension. […] The hemodynamics aspects of the cerebral blood flow modulation can be described by a mathematical model (see Rosengarten et al., Headache 2003; 43: 458-463). This cited model contains a parameter T which defines the initial fast responding properties of the blood flow upon visual stimulation and three parameters (K, ζ and ω) which define the delayed adjustment of the […] blood flow. T is called the hold-back-time or rate time, K is the gain (which means change in blood flow velocity upon visual stimulation),ζ the attenuation (which represents the dampening due to vessel wall attenuation) and ω the natural frequency (represents the oscillating properties in dynamic neurovascular coupling). Patients with primary and secondary pulmonary hypertension display a pulmonary disturbance between ventilation of the alveoli and their perfusion. Such a demand-dependent inadequate perfusion has also been shown for the vasculature near the muscles. In this invention it is shown that patients with pulmonary hypertension display an increase in the rate time (meaning T is larger) and an enhanced attenuation ζ of the cerebral blood flow within the posterior cerebral artery upon visual stimulation. Thus it is shown that the mentioned disturbed micro-perfusion observed in patients with pulmonary hypertension extents to that of the brain. […] In addition the pro-longed hold-back time (rate time) in the patients is shortened by treatment with the PDE5-inhibitor sildenafil. This measurements have been performed 1 h after sildenafil intake but all responses to oral sildenafil outlasted 120-150 min.
In contrast to sildenafil iloprost treatment (2,8 μg inhaled in 4 min) worsens the impaired rate time and attenuation in patients with pulmonary hypertension (FIG. 1).
FIG. 1. Assessment of cerebral flow characteristics. Values for rate time and attenuation are presented in this graph. Medians (filled circles) and 95% confidence intervals (bars) are given for healthy controls, and patients at baseline (untreated), after iloprost inhalation, and subsequent to oral sildenafil intake. Statistical differences were assessed by ANOVA (p-values indicate significant differences between groups). Fisher's post hoc test was calculated at a significance level of p<0.05;

For the next assay, the system named is pulmonary circulation. The experiment in a line: Pulmonary haemodynamics in patients with chronic pulmonary hypertension. In kind it is in vivo, human. Particulars: inhaled iloprost, oral sildenafil.
Assay [2] deals with rats with LPS-induced sepsis. The experiment in a line: LPS-induced sepsis in anaesthetized rats: sensoric evoked potentials and evoked cerebral blood flow. The following applies: 4½ h after inducing sepsis with LPS. Type of assay: in vivo, rat.
Method: Modulation of the cerebral blood flow evoked by repetitive electrical stimulation of the sole of one foot of the rats is measured by Doppler ultrasound technology as well as the sensoric evoked neuronal potentials (SEPs) by EEG. Baseline measurements are performed before application of LPS to the rats to induce sepsis.
Another assay has as its system stroke in rats. The following applies: cited from earlier work.
For assay [3], the system named is epicardial coronary arteries. The following applies: patients with coronary artery disease; cited from earlier work.
The mark [4] stands for this setting: patients with pulmonary hypertension, iloprost 2,8 μg inhaled in 4 min.

Molecules are shown by their SMILES.

Turning to `CC#CCC(C)[C@H](O)/C=C/[C@@H]1[C@H]2C/C(=C/CCCC(=O)O)C[C@H]2C[C@H]1O` (stereo partly shown) [iloprost], the cerebral microvascular reactivity entry in assay [1] is “gradually worsened”. In addition, in assay [1] (setting [4]), the “attenuation of cerebral blood flow upon visual stimulation” value was “worsens” and the “rate time of cerebral blood flow upon visual stimulation” value is listed as “worsens”. Also, in the assay with pulmonary circulation, the pulmonary arterial pressure result was “significant reduction” and the pulmonary vascular resistance entry is listed as “significant reduction”.

Regarding `CCCc1nn(C)c2c(=O)[nH]c(-c3cc(S(=O)(=O)N4CCN(C)CC4)ccc3OCC)nc12` [sildenafil, 5-[2-ethoxy-5-(4-methylpiperazin-1-ylsulfonyl)phenyl]-1,6-dihydro-1-methyl-3-propylpyrazolo[4,3-d]pyrimidin-7-one], the cerebral microvascular reactivity result in assay [1] is recorded as “significantly improved”. The “duration of responses to oral sildenafil” value in assay [1] (patients with pulmonary hypertension, 50 mg oral) is 120 to 150 min. The “hold-back time (rate time) T of cerebral blood flow upon visual stimulation” value in assay [1] (patients with pulmonary hypertension, sildenafil 50 mg, oral, 1 h after intake) is listed as “shortened”. Moreover, the “attenuation parameter ζ of cerebral blood flow upon visual stimulation” value in assay [1] (patients with pulmonary hypertension, sildenafil 50 mg, oral, one hour before measurement) was “significantly reduced”. The “stimulus induced cerebral blood flow” value in assay [2] (Doppler ultrasound) is “greatly restores”. The “amplitude of the SEP (sensoric evoked neuronal potentials)” value in assay [2] (electrical stimulation of one foot) is reported as “greatly restores”. In the assay with pulmonary circulation, the pulmonary arterial pressure result is on record as “significant reduction” and the pulmonary vascular resistance entry was “significant reduction”. In the assay with stroke in rats, the “functional recovery after stroke” value is “promotes functional recovery” and the neurogenesis after stroke result was “induces neurogenesis”. The “relaxation of epicardial coronary arteries” value in assay [3] was “relax epicardial coronary arteries”.
